Measurements published in paper PMC5706701, “Development of a homogenous high-throughput assay for inositol hexakisphosphate kinase 1 activity” (PLoS ONE, 2017).
Entries after “also recorded” stand apart in the source; their conditions may differ. Where a name gives a salt, the structure may show the parent alone. Read-outs that look alike come from different tables or passages of the source. Blank lines part the entries; values can stand above or below the molecule they belong to.

Legend:
Human IP6K1 [1] = molecular target: T1, Human IP6K1 (Homo sapiens, UniProt Q92551); assay: IP6K1 high-throughput screen of the Sigma LOPAC (ADP-Glo Max, single point); format: biochemical
T1 construct: GST (N, cleaved yes); made in house; host or cells: C43 E. coli, pGEX-6P-2
T1 sequence (Q92551 whole entry): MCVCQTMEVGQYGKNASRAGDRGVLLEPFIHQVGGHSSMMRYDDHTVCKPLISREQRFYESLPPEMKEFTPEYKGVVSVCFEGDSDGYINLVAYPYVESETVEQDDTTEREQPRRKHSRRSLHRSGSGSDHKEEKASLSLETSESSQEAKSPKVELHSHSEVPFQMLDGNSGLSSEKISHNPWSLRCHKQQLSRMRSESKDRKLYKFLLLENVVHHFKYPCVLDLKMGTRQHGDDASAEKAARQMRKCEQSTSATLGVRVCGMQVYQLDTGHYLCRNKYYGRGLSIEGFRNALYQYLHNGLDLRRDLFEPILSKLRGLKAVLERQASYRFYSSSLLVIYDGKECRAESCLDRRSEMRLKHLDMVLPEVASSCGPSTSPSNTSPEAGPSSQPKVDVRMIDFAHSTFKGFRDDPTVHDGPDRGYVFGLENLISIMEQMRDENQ

Human IP6K1 [2] = molecular target: T1, Human IP6K1; assay: Inositol polyphosphate separation by PAGE (5PP-IP5 production by IP6K1); format: biochemical; details: 10μM inhibitor, 1mM ATP, 250μM IP6, 60nM IP6K1, 2 hours, 37°C
[3] = system: enzymes involved in the detection steps of the kit; assay: Counter-screen against the detection steps of the ADP-Glo Max kit (no enzyme, no IP6); format: biochemical; details: 10μM compound, 25μM ADP and 975μM ATP
Protocol: The Sigma LOPAC was obtained as 10mM DMSO stock solutions from the Johns Hopkins ChemCore facility. Each compound was first diluted to 50μM and 25% DMSO in assay buffer. The inhibition assay was performed as described above with 1μL of compound and 4μL of kinase master mix so that the final compound concentration was 10μM in 5% DMSO. […] Hits were determined based by the Z score, which is calculated as Z = (Xi-Xavg)/Sx, where Xi is the raw measurement on the i^th compound, Xavg and Sx are the mean and the standard deviation, respectively, of all measurements within the plate. Hits identified from the screen were repeated in the assay in quadruplicate for confirmation. These confirmed hits were then tested to determine if they inhibited the enzymes involved in the detection steps of the kit. Possible interference of the compounds was assessed by measuring the degree to which they inhibited the signal produced by a 25μM ADP in the presence of 975μM ATP. This experiment was run as described above for the inhibition assays in the absence of enzyme and IP6.

human IP6K2 = molecular target: T2, human IP6K2 (Homo sapiens, UniProt Q9UHH9); assay: IP6K2 inhibition dose-response assay (ADP-Glo Max); format: biochemical
T2 construct: GST (N, cleaved yes); made in house; host or cells: C43 E. coli, pGEX-6P-2
T2 sequence (Q9UHH9 1-426): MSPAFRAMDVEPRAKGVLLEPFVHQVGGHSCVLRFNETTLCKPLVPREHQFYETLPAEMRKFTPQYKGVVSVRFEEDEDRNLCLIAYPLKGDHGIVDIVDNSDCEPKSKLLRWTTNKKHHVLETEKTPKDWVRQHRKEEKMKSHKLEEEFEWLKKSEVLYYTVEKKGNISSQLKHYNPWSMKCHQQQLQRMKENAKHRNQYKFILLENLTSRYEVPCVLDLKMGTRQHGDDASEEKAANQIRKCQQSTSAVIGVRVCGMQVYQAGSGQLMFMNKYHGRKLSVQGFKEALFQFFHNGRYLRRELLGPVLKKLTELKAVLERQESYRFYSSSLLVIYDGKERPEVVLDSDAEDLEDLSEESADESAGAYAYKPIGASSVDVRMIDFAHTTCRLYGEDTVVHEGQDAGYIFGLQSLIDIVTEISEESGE
Protocol: (§1) Human IP6K1 (NCBI accession# Q92551), human IP6K2 (NCBI accession# Q9UHH9), and human IP6K3 (NCBI accession# Q96PC2) were purified from C43 E. coli transformed with pGEX-6P-2 expression vector containing GST tagged IP6K1, IP6K2, or IP6K3. The bacteria were grown overnight in a starter culture containing LB (Lennox) and 100μg/mL ampicillin (Sigma). The starter culture was diluted 1:100 into LB (Lennox) and allowed to grow to an optical density of 0.8 at 37°C when protein expression was induced with 1mM IPTG (Calbiochem) for 5hrs. The cells were pelleted with 3000RCF at 4°C and frozen at -80°C. Later, the bacteria was re-suspended in lysis buffer (20mM Tris, 200mM NaCl, 5mM DTT, 1% Triton-X, 0.5% IPEGAL, 1mg/mL lysozyme, and 1 protease inhibitor tablet (Sigma) per 100mL buffer, pH 7.4) and rotated on an end over end shaker for 30 min at 4°C followed by sonication. […]
(§2) For the dose response assays, 7–10 serial 3-fold compound dilutions were prepared in DMSO and then each compound was diluted with assay buffer (50mM Tris, 10mM MgCl2, 2.5mM DTT, 0.02% Triton X-100, pH 6.9) to reach the desired inhibitor concentrations in 25% DMSO. […] Luminescence generated was read on a Tecan Infinite M100 Pro plate reader. Samples were run in quadruplicate and the data was analyzed using a […] variable slope inhibition parameter on GraphPad Prism 7. […]

human IP6K3 = molecular target: T3, human IP6K3 (Homo sapiens, UniProt Q96PC2); assay: IP6K3 inhibition dose-response assay (ADP-Glo Max); format: biochemical
T3 construct: GST (N, cleaved yes); made in house; host or cells: C43 E. coli, pGEX-6P-2
T3 sequence (Q96PC2 1-410): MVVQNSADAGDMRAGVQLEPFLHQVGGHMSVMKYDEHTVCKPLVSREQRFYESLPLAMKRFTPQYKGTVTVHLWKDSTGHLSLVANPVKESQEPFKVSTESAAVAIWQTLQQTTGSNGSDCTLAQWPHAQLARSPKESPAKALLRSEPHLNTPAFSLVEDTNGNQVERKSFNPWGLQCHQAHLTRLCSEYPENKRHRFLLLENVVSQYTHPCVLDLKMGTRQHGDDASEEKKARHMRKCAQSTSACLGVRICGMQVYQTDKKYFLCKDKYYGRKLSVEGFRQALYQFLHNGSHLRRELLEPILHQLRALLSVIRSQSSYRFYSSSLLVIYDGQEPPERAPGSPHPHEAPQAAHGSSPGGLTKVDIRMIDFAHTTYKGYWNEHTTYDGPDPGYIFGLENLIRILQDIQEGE
Protocol: as §1, §2

Human IP6K1 [4] = molecular target: T1, Human IP6K1; assay: IP6K1 inhibition dose-response assay (ADP-Glo Max); format: biochemical
DIO mice = system: DIO mice; set-up: method as in PMID 27689003; details: DIO model, mice treated with TNP; cited from earlier work
[5] = cited from earlier work
[6] = cited from earlier work; remark: listed apart in the source
Human IP6K1 [7] = molecular target: T1, Human IP6K1; assay: IP6K1 kinetic assay (ADP-Glo Max, Michaelis-Menten); format: biochemical; details: 400μM IP6, ATP 31.25μM to 2mM, 15ng IP6K1, 15 minutes
Protocol: IP6K1 activity was measured using the ADP-Glo Max kit (Promega). […] Reactions were quenched with 5μL of Promega ADP-Glo reagent to deplete the remaining ATP at the corresponding time points and incubated for 1hr at room temperature in the dark. […] Luminescence was detected with a Tecan Infinite […] plate reader. The amount of ADP produced by IP6K1 was determined by correlating the observed luminescence to a luminescence signal standard curve generated from various concentrations of ADP. A new standard curve was generated for each concentration of ATP tested such that the total amount of nucleotides (ATP+ADP) at every point on the curve was equal to the concentration of ATP used in the experiment. Standard curves typically began with 100μM or 50μM ADP and were serially 2-fold diluted 8 times. […] Nonlinear regressions and curve fitting to the Michaelis-Menten equation were performed in GraphPad Prism 7. […] The ADP production at […] was measured. The initial reaction velocity (V0) was calculated and plotted with each ATP condition. GraphPad Prism 7 was used to run the non-linear regression and fit the data to the Michaelis-Menten equation. […] The Michaelis-Menten constants when IP6 is the varied substrate were unable to be determined.

IP6K1 = system: IP6K1; set-up: method as in PMID 8633060; details: 3H-PP-IP5 production with 3H-IP6 as substrate; read-out: Km of ATP for IP6K1; cited from earlier work
[8] = LOPAC single-point screen, ADP-Glo Max luminescence raw signal per well
[9] = LOPAC single-point screen, Z-score relative to plate average and StDev
[10] = LOPAC single-point screen, ADP-Glo Max raw signal per well
[11] = LOPAC single-point screen, Z-score against plate average and StDev
[12] = Sigma LOPAC single-point screen, ADP-Glo Max raw signal per well
[13] = Sigma LOPAC single-point screen, Z-score from plate average and StDev

Structure (SMILES): NC(Cc1cc(O)c(O)cc1O)C(=O)O (racemic) [6-Hydroxy-DL-Dopa]
Raw Signal (Human IP6K1 [1]; [8]): 10170
Z-score (Human IP6K1 [1]; [9]): -9.138
Inhibition of 5PP-IP5 production by IP6K1 (PAGE, Toluidine Blue) (Human IP6K1 [2]): inhibited below the limit of detection
Signal loss in counter-screen of detection steps [3]: neither TNP nor 6-Hydroxy-DL-Dopa showed significant signal loss
IC50 (human IP6K2): 1.66 ± 1.06 µM
IC50 (human IP6K3): 11.1 ± 1.13 µM
IC50 (Human IP6K1 [4]): 1.84 ± 1.03 µM

Structure (SMILES): O=[N+]([O-])c1ccc(CNc2nc(NCc3cccc(C(F)(F)F)c3)nc3nc[nH]c23)cc1 [TNP, N2-(m-trifluorobenzyl), N6-(p-nitrobenzyl)purine]
Inhibition of 5PP-IP5 production by IP6K1 (PAGE, Toluidine Blue) (Human IP6K1 [2]): inhibit 5PP-IP5 production in this experiment at 10μM albeit to a lesser degree
Signal loss in counter-screen of detection steps [3]: neither TNP nor 6-Hydroxy-DL-Dopa showed significant signal loss
Performance in insulin and glucose tolerance tests (DIO mice): better performance in insulin and glucose tolerance tests
Pharmacokinetic properties [5]: poor pharmacokinetic properties
Brain penetration ([5]; in vivo): low brain penetration
Solubility in aqueous media [6]: insolubility in aqueous media
IC50 (Human IP6K1 [4]; 50μM IP6, 300μM ATP, 60nM IP6K1, 15 minutes, read-out: IC50 IP6K1): 24 ± 1.5 µM
IC50 (Human IP6K1 [4]; 62.5μM ATP, 400μM IP6, 60nM IP6K1, 30 minutes, 37°C, read-out: IC50 IP6K1): 12 ± 1.1 µM
IC50 (Human IP6K1 [4]; 100μM IP6, 300μM ATP, 60nM IP6K1, 15 minutes, read-out: IC50 IP6K1): 20 ± 4.5 µM
IC50 (Human IP6K1 [4]; 200μM IP6, 300μM ATP, 60nM IP6K1, 15 minutes, read-out: IC50 IP6K1): 21 ± 1.8 µM
IC50 (Human IP6K1 [4]; 250μM ATP, 400μM IP6, 60nM IP6K1, 30 minutes, 37°C, read-out: IC50 IP6K1): 16 ± 1.1 µM
IC50 (Human IP6K1 [4]; 400μM IP6, 300μM ATP, 60nM IP6K1, 15 minutes, read-out: IC50 IP6K1): 9.5 ± 1.5 µM
IC50 (Human IP6K1 [4]; 2mM ATP, 400μM IP6, 60nM IP6K1, 30 minutes, 37°C, read-out: IC50 IP6K1): 39 ± 1.1 µM
Mode of inhibition of IP6K1 (Human IP6K1 [4]; from IC50 shift with ATP or IP6 concentration): ATP competitive inhibitor; also recorded: IP6 is not competitive with TNP

Structure (SMILES): O=c1onc2cnc3ccccc3n12 [ODQ]
Raw Signal (Human IP6K1 [1]; [12]): 60819
Z-score (Human IP6K1 [1]; [13]): 1.08

Structure (SMILES): CC(N)=NCc1cccc(CN)c1.Cl.Cl [1400W dihydrochloride]
Raw Signal (Human IP6K1 [1]; [10]): 55005
Z-score (Human IP6K1 [1]; LOPAC single-point screen, Z-score from raw signal with plate average and StDev): -0.1979

Structure (SMILES): COc1ccc2[nH]c3c(c2c1)CCNC3
Raw Signal (Human IP6K1 [1]; [8]): 69821
Z-score (Human IP6K1 [1]; LOPAC single-point screen, Z-score from plate average and StDev): 2.097

The next lines start with results.

Raw Signal (Human IP6K1 [1]; [8]): 8540
Inhibition of enzyme activity in initial LOPAC screen (Human IP6K1 [1]; single point 100μM compound, 62.5μM ATP): 100%
IC50 (human IP6K2; 1mM ATP, 100μM IP6, 7.5nM IP6K2, 30 minutes, 37°C, read-out: IC50 IP6K2): 23.4 ± 1.1 µM
IC50 (human IP6K3; 1mM ATP, 100μM IP6, 120nM IP6K3, 120 minutes, 37°C, read-out: IC50 IP6K3): 4.93 ± 1.14 µM
Structure (SMILES): O=c1c(O)c(-c2cc(O)c(O)c(O)c2)oc2cc(O)cc(O)c12 [Myricetin]
Signal loss in counter-screen of detection steps [3]: significantly inhibit the secondary reagents

Km (Human IP6K1 [7]): 382 ± 44 µM
Vmax for ATP (Human IP6K1 [7]): 1116 ± 41 nmol/min/mg
Structure (SMILES): Nc1ncnc2c1ncn2[C@@H]1O[C@H](COP(=O)(O)OP(=O)(O)OP(=O)(O)O)[C@@H](O)[C@H]1O [ATP]
Km (IP6K1): 1000 µM

Raw Signal (Human IP6K1 [1]; [10]): 59148
Z-score (Human IP6K1 [1]; [11]): 0.2175
Structure (SMILES): Cc1nnc(SCC2=C(C(=O)O)N3C(=O)[C@@H](NC(=O)Cn4cnnn4)[C@H]3SC2)s1 [Cefazolin sodium]

Raw Signal (Human IP6K1 [1]; [8]): 52508
Z-score (Human IP6K1 [1]; [9]): -0.952
Structure (SMILES): O=C1O/C(=C/Br)CCC1c1cccc2ccccc12 (stereo not shown) [Bromoenol lactone]

Raw Signal (Human IP6K1 [1]; [10]): 56412
Z-score (Human IP6K1 [1]; [11]): 0.2528
Structure (SMILES): OCCN1CCN(CC/C=C2/c3ccccc3Sc3ccc(C(F)(F)F)cc32)CC1 [cis-(Z)-Flupenthixol dihydrochloride]

Raw Signal (Human IP6K1 [1]; [12]): 58233
Z-score (Human IP6K1 [1]; [13]): 0.6451
Structure (SMILES): NC(=O)CN1CCCC1=O [Piracetam]
